Like-named read-outs stand apart in the source and are kept apart here.
Experiments:
Mcl-1 protein = Mcl-1 protein (UniProtKB primary accession number: Q07820) (Homo sapiens, UniProt Q07820); assay: Inhibition of Mcl-1 by fluorescence polarisation, Method 1; type: binding; conditions: read-out: IC50 (M) Mcl-1 FP
Outline: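 Fluorescence polarisation competition with an 11-point compound dilution series (final DMSO 5%). Mcl-1 protein at 5 nM and fluorescein-labelled ligand at 1 nM (final) in 10 mM HEPES, 150 mM NaCl, 0.05% Tween 20, pH 7.4.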

[1] = tested on: H929 multiple myeloma tumour line; assay: In vitro cytotoxicity, Microculture Tetrazolium Assay; type: cell-based; conditions: H929 cells, 48 hours exposure, MTT, read-out: IC50 (μM) MTT H929
Experimental: The cytotoxicity studies were carried out on the H929 multiple myeloma tumour line.
The cells are distributed onto microplates and exposed to the test compounds for 48 hours.

[2] = fluorescence polarisation test, Method 2 values are underlined in the patent (underlining not visible here)
[3] = fluorescence polarisation, Method 1, or Method 2

Sequence of Mcl-1 protein (Q07820 whole entry): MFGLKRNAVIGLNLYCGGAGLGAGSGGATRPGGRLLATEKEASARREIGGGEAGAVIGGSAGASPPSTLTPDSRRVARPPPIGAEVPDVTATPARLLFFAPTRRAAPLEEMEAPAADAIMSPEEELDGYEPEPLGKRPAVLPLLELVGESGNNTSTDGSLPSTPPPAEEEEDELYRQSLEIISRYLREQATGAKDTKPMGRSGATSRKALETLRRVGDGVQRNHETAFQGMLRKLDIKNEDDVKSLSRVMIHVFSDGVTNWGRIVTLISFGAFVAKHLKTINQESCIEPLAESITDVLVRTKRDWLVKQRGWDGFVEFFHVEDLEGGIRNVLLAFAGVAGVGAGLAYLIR

| IC50 (Mcl-1 protein; [2]) [M] | IC50 (Mcl-1 protein; [3]) [M] | SMILES | IC50 [1] [µM] | IC50 ([1]; Homo sapiens, NCI-H929, 48 h) [µM] |
| --- | --- | --- | --- | --- |
| – | 6.2e-08 | Cc1c(-c2c(-c3ccoc3)sc3ncnc(OC(Cc4ccccc4)C(=O)O)c23)ccc(OCCN2CCN(C)CC2)c1Cl [Example 509, (2R)-2-{[(5Sa)-5-{3-chloro-2-methyl-4-[2-(4-methylpiperazin-1-yl)ethoxy]phenyl}-6-(furan-3-yl)thieno[2,3-d]pyrimidin-4-yl]oxy}-3-phenylpropanoic acid] | – | 1.46 |
| 7.4e-09 | – | Cc1c(-c2c(-c3ccco3)sc3ncnc(OC(Cc4ccccc4OCc4cccc(Cl)n4)C(=O)O)c23)ccc(OCCN2CCN(C)CC2)c1Cl [Example 236, (2R)-2-{[(5Sa)-5-{3-chloro-2-methyl-4-[2-(4-methylpiperazin-1-yl)ethoxy]phenyl}-6-(furan-2-yl)thieno[2,3-d]pyrimidin-4-yl]oxy}-3-{2-[(6-chloropyridin-2-yl)methoxy]phenyl}propanoic acid] | – | 0.137 |
| – | 1.3e-08 | CCc1sc2ncnc(OC(Cc3ccccc3)C(=O)O)c2c1-c1ccc(OCCN2CCC(O)CC2)c(Cl)c1C [Example 413, (2R)-2-[((5Sa)-5-{3-chloro-4-[2-(4-hydroxypiperidin-1-yl)ethoxy]-2-methylphenyl}-6-ethylthieno[2,3-d]pyrimidin-4-yl)oxy]-3-phenylpropanoic acid] | – | 15.8 |
| – | 6.1e-08 | COCC#Cc1ccccc1CC(Oc1ncnc2sc(-c3ccc(F)cc3)c(-c3ccc(OCCN4CCN(C)CC4)c(Cl)c3C)c12)C(=O)O [Example 656, (2R)-2-{[(5Sa)-5-{3-chloro-2-methyl-4-[2-(4-methylpiperazin-1-yl)ethoxy]phenyl}-6-(4-fluorophenyl)thieno[2,3-d]pyrimidin-4-yl]oxy}-3-[2-(3-methoxyprop-1-yn-1-yl)phenyl]propanoic acid] | – | 0.523 |

Continued, compound first:

| SMILES | IC50 (Mcl-1 protein; [2]) [M] | IC50 (Mcl-1 protein; [3]) [M] | IC50 [1] [µM] | IC50 ([1]; Homo sapiens, NCI-H929, 48 h) [µM] |
| --- | --- | --- | --- | --- |
| Cc1c(-c2c(-c3ccc(F)cc3)sc3ncnc(OC(Cc4ccccc4OCc4cnccn4)C(=O)O)c23)ccc(OC2CCCN(C)C2)c1Cl (single isomer, unassigned) [Example 142, (2R)-2-{[(5Sa)-5-{3-chloro-2-methyl-4-[((3R or S)-1-methylpiperidin-3-yl)oxy]phenyl}-6-(4-fluorophenyl)thieno[2,3-d]pyrimidin-4-yl]oxy}-3-[2-(pyrazin-2-ylmethoxy)phenyl]propanoic acid] | 4.2e-08 | – | 1.67 | – |
| COc1ccc(-c2sc3ncnc(OC(Cc4ccccc4OCc4ccnc(-c5ccccc5OC)n4)C(=O)O)c3c2-c2ccc(OCCN3CCN(C)CC3)c(Cl)c2C)cc1 (single isomer, unassigned) [Example 761] | – | 1.07e-07 | 0.148 | – |
| COc1ccccc1CC(Oc1ncnc2sc(-c3ccc(F)cc3)c(-c3ccc(OCCN4CCN(C)CC4)c(Cl)c3Cl)c12)C(=O)O [Example 647, (2R)-2-{[(5Sa)-5-{2,3-dichloro-4-[2-(4-methylpiperazin-1-yl)ethoxy]phenyl}-6-(4-fluorophenyl)thieno[2,3-d]pyrimidin-4-yl]oxy}-3-(2-methoxyphenyl)propanoic acid] | – | 2.3e-08 | – | 0.498 |
| COCCOc1cc(-c2sc3ncnc(OC(Cc4ccccc4OCc4ccnc(OC)n4)C(=O)O)c3c2-c2ccc(OCCN3CCN(C)CC3)c(Cl)c2C)ccc1F [Example 598, (2R)-2-[((5Sa)-5-{3-chloro-2-methyl-4-[2-(4-methylpiperazin-1-yl)ethoxy]phenyl}-6-[4-fluoro-3-(2-methoxyethoxy)phenyl]thieno[2,3-d]pyrimidin-4-yl)oxy]-3-{2-[(2-methoxypyrimidin-4-yl)methoxy]phenyl}propanoic acid] | – | 7.8e-09 | – | 0.097 |
| Cc1c(-c2c(-c3ccc(F)cc3)sc3ncnc(OC(Cc4ccccc4OCc4ccnc(CC5CC5)n4)C(=O)O)c23)ccc(OCCN2CCN(C)CC2)c1Cl [Example 39, (2R)-2-{[(5Sa)-5-{3-chloro-2-methyl-4-[2-(4-methylpiperazin-1-yl)ethoxy]phenyl}-6-(4-fluorophenyl)thieno[2,3-d]pyrimidin-4-yl]oxy}-3-(2-{[2-(cyclopropylmethyl)pyrimidin-4-yl]methoxy}phenyl)propanoic acid] | 4.8e-09 | – | – | 0.015 |
